Laboratory results reported in ChEMBL document CHEMBL3885881, “DrugMatrix”.

Organism: Rattus norvegicus
Assay: DrugMatrix - Regimen: Daily Repeat
Assay type: toxicity, organism-based, Sprague-Dawley
Parameters: regimen Daily Repeat, gender Male, age 6-8 weeks
Conditions: in vivo, po, route oral GAVAGE, vehicle .5 % CMC; for ABSOLUTE BASOPHIL / ABSOLUTE EOSINOPHIL / ABSOLUTE MONOCYTE / ABSOLUTE SEGMENTED NEUTROPHIL / BASOPHIL / EOSINOPHIL / ERYTHROCYTE COUNT / HEMATOCRIT / HEMOGLOBIN / LEUKOCYTE COUNT / LYMPHOCYTE / MEAN CORPUSCULAR HEMOGLOBIN / MEAN CORPUSCULAR HEMOGLOBIN CONCENTRATION / MEAN CORPUSCULAR VOLUME / MONOCYTE / NEUTROPHIL / NUCLEATED RED BLOOD CELLS / PLATELET COUNT: tissue Blood; for ALANINE AMINOTRANSFERASE / ALBUMIN / ALKALINE PHOSPHATASE / ASPARTATE AMINOTRANSFERASE / BLOOD UREA NITROGEN / CARBON DIOXIDE / CHLORIDE / CHOLESTEROL / CREATINE PHOSPHOKINASE / CREATININE / GLUCOSE / LACTATE DEHYDROGENASE / LIPASE / PHOSPHORUS / POTASSIUM / SODIUM / TOTAL BILIRUBIN / TOTAL PROTEIN / URIC ACID: tissue Plasma
[1] = 0 mg/kg, 72 h, dose level Control, time 3 day
[2] = 0 mg/kg, 120 h, dose level Control, time 5 day
[3] = […], 72 h, dose 6.5 mg/Kg, dose level Low, time 3 day
[4] = […], 120 h, dose 6.5 mg/Kg, dose level Low, time 5 day

CN(C)CCOC(c1ccccc1)c1ccccc1.Cn1c(=O)c2[nH]c(Cl)nc2n(C)c1=O [DIMENHYDRINATE]
ABSOLUTE BASOPHIL [1]: 0 CELLS/uL | ABSOLUTE EOSINOPHIL [1]: 32.5 CELLS/uL | ABSOLUTE MONOCYTE [1]: 474 CELLS/uL | ABSOLUTE SEGMENTED NEUTROPHIL [1]: 1932.67 CELLS/uL | BASOPHIL [1]: 0% | EOSINOPHIL [1]: 0.17% | ERYTHROCYTE COUNT [1]: 5.45 x10E6/uL | HEMATOCRIT [1]: 34.32% | HEMOGLOBIN [1]: 13.82 G/DL | LEUKOCYTE COUNT [1]: 15.93 x10E3/uL | LYMPHOCYTE [1]: 84.83% | MEAN CORPUSCULAR HEMOGLOBIN [1]: 25.38 pg | MEAN CORPUSCULAR HEMOGLOBIN CONCENTRATION [1]: 40.27 G/DL | MEAN CORPUSCULAR VOLUME [1]: 63.05 fL | MONOCYTE [1]: 3% | NEUTROPHIL [1]: 12% | NUCLEATED RED BLOOD CELLS [1]: 0.67 /100WBC | PLATELET COUNT [1]: 1188.5 x10E3/uL | ALANINE AMINOTRANSFERASE [1]: 54.83 u/L | ALBUMIN [1]: 4.22 G/DL | ALKALINE PHOSPHATASE [1]: 427.67 u/L | ASPARTATE AMINOTRANSFERASE [1]: 86.5 u/L | BLOOD UREA NITROGEN [1]: 15.33 mg/dL | CARBON DIOXIDE [1]: 24.83 mmol/L | CHLORIDE [1]: 102.33 MEQ/L | CHOLESTEROL [1]: 71.67 mg/dL | CREATINE PHOSPHOKINASE [1]: 442.5 u/L | CREATININE [1]: 0.19 mg/dL | GLUCOSE [1]: 160.67 mg/dL | LACTATE DEHYDROGENASE [1]: 236.5 u/L | LIPASE [1]: 9 u/L | PHOSPHORUS [1]: 11.97 mg/dL | POTASSIUM [1]: 6.2 MEQ/L | SODIUM [1]: 142.85 MEQ/L | TOTAL BILIRUBIN [1]: 0.2 mg/dL | TOTAL PROTEIN [1]: 5.8 G/DL | URIC ACID [1]: 1.3 mg/dL | ABSOLUTE BASOPHIL [2]: 0 CELLS/uL | ABSOLUTE EOSINOPHIL [2]: 114.5 CELLS/uL | ABSOLUTE MONOCYTE [2]: 173 CELLS/uL | ABSOLUTE SEGMENTED NEUTROPHIL [2]: 1048.5 CELLS/uL | BASOPHIL [2]: 0% | EOSINOPHIL [2]: 0.67% | ERYTHROCYTE COUNT [2]: 5.66 x10E6/uL | HEMATOCRIT [2]: 35.52% | HEMOGLOBIN [2]: 14.27 G/DL | LEUKOCYTE COUNT [2]: 15.95 x10E3/uL | LYMPHOCYTE [2]: 91.33% | MEAN CORPUSCULAR HEMOGLOBIN [2]: 25.23 pg | MEAN CORPUSCULAR HEMOGLOBIN CONCENTRATION [2]: 40.2 G/DL | MEAN CORPUSCULAR VOLUME [2]: 62.7 fL | MONOCYTE [2]: 1.17% | NEUTROPHIL [2]: 6.83% | NUCLEATED RED BLOOD CELLS [2]: 0.33 /100WBC | PLATELET COUNT [2]: 1229 x10E3/uL | ALANINE AMINOTRANSFERASE [2]: 58.67 u/L | ALBUMIN [2]: 4.32 G/DL | ALKALINE PHOSPHATASE [2]: 382.5 u/L | ASPARTATE AMINOTRANSFERASE [2]: 81.67 u/L | BLOOD UREA NITROGEN [2]: 17.67 mg/dL | CARBON DIOXIDE [2]: 27.17 mmol/L | CHLORIDE [2]: 102.33 MEQ/L | CHOLESTEROL [2]: 63.67 mg/dL | CREATINE PHOSPHOKINASE [2]: 227.67 u/L | CREATININE [2]: 0.23 mg/dL | GLUCOSE [2]: 155.33 mg/dL | LACTATE DEHYDROGENASE [2]: 146.5 u/L | LIPASE [2]: 10.67 u/L | PHOSPHORUS [2]: 11.93 mg/dL | POTASSIUM [2]: 6.85 MEQ/L | SODIUM [2]: 143.95 MEQ/L | TOTAL BILIRUBIN [2]: 0.18 mg/dL | TOTAL PROTEIN [2]: 6.02 G/DL | URIC ACID [2]: 1.63 mg/dL | ABSOLUTE BASOPHIL [3]: 0 CELLS/uL | ABSOLUTE EOSINOPHIL [3]: 46.67 CELLS/uL | ABSOLUTE MONOCYTE [3]: 474 CELLS/uL | ABSOLUTE SEGMENTED NEUTROPHIL [3]: 1911.67 CELLS/uL | BASOPHIL [3]: 0% | EOSINOPHIL [3]: 0.33% | ERYTHROCYTE COUNT [3]: 5.67 x10E6/uL | HEMATOCRIT [3]: 35.5% | HEMOGLOBIN [3]: 13.93 G/DL | LEUKOCYTE COUNT [3]: 14.93 x10E3/uL | LYMPHOCYTE [3]: 84% | MEAN CORPUSCULAR HEMOGLOBIN [3]: 24.57 pg | MEAN CORPUSCULAR HEMOGLOBIN CONCENTRATION [3]: 39.27 G/DL | MEAN CORPUSCULAR VOLUME [3]: 62.6 fL | MONOCYTE [3]: 3% | NEUTROPHIL [3]: 12.67% | NUCLEATED RED BLOOD CELLS [3]: 0 /100WBC | PLATELET COUNT [3]: 1199.33 x10E3/uL | ALANINE AMINOTRANSFERASE [3]: 47.67 u/L | ALBUMIN [3]: 4.03 G/DL | ALKALINE PHOSPHATASE [3]: 343 u/L | ASPARTATE AMINOTRANSFERASE [3]: 87 u/L | BLOOD UREA NITROGEN [3]: 15 mg/dL | CARBON DIOXIDE [3]: 25.67 mmol/L | CHLORIDE [3]: 102 MEQ/L | CHOLESTEROL [3]: 75.33 mg/dL | CREATINE PHOSPHOKINASE [3]: 266 u/L | CREATININE [3]: 0.14 mg/dL | GLUCOSE [3]: 167.33 mg/dL | LACTATE DEHYDROGENASE [3]: 166 u/L | LIPASE [3]: 9.33 u/L | PHOSPHORUS [3]: 12.2 mg/dL | POTASSIUM [3]: 6.53 MEQ/L | SODIUM [3]: 144.67 MEQ/L | TOTAL BILIRUBIN [3]: 0.2 mg/dL | TOTAL PROTEIN [3]: 5.6 G/DL | URIC ACID [3]: 1.57 mg/dL | ABSOLUTE BASOPHIL [4]: 0 CELLS/uL | ABSOLUTE EOSINOPHIL [4]: 108.67 CELLS/uL | ABSOLUTE MONOCYTE [4]: 85.67 CELLS/uL | ABSOLUTE SEGMENTED NEUTROPHIL [4]: 1586.67 CELLS/uL | BASOPHIL [4]: 0% | EOSINOPHIL [4]: 0.67% | ERYTHROCYTE COUNT [4]: 5.47 x10E6/uL | HEMATOCRIT [4]: 34.93% | HEMOGLOBIN [4]: 14.13 G/DL | LEUKOCYTE COUNT [4]: 19.43 x10E3/uL | LYMPHOCYTE [4]: 91.67% | MEAN CORPUSCULAR HEMOGLOBIN [4]: 25.8 pg | MEAN CORPUSCULAR HEMOGLOBIN CONCENTRATION [4]: 40.47 G/DL | MEAN CORPUSCULAR VOLUME [4]: 63.8 fL | MONOCYTE [4]: 0.33% | NEUTROPHIL [4]: 7.33% | NUCLEATED RED BLOOD CELLS [4]: 0 /100WBC | PLATELET COUNT [4]: 1543 x10E3/uL | ALANINE AMINOTRANSFERASE [4]: 48.67 u/L | ALBUMIN [4]: 4.17 G/DL | ALKALINE PHOSPHATASE [4]: 266.33 u/L | ASPARTATE AMINOTRANSFERASE [4]: 77.33 u/L | BLOOD UREA NITROGEN [4]: 18.67 mg/dL | CARBON DIOXIDE [4]: 25 mmol/L | CHLORIDE [4]: 96 MEQ/L | CHOLESTEROL [4]: 71.33 mg/dL | CREATINE PHOSPHOKINASE [4]: 225.67 u/L | CREATININE [4]: 0.2 mg/dL | GLUCOSE [4]: 159 mg/dL | LACTATE DEHYDROGENASE [4]: 96.67 u/L | LIPASE [4]: 10 u/L | PHOSPHORUS [4]: 13.07 mg/dL | POTASSIUM [4]: 6.62 MEQ/L | SODIUM [4]: 135.4 MEQ/L | TOTAL BILIRUBIN [4]: 0.13 mg/dL | TOTAL PROTEIN [4]: 5.8 G/DL | URIC ACID [4]: 2.27 mg/dL
